Laboratory results from patent US20060035847A1, “Glucopyranosyloxyprazole derivatives and use thereof in medicines” (KISSEI PHARMACEUTICAL CO., LTD., priority 2000, published 2006).

How the values were obtained:
SD rats = assay: Assay for the facilitatory effect on urinary glucose excretion; type: in vivo; details: glucose load 2 g/kg, 24 hours urine
Description: Assay for the Facilitatory Effect on Urinary Glucose Excretion
(§1) As experimental animal, overnight fasted SD rats (Japan SLC. Inc., male, 7 weeks of age, 202-221 g) were used. A Test compound was suspended in 0.5% sodium carboxymethylcellulose solution at the concentration of 2 mg/mL. When homogenous suspension was not obtained in this condition, the test compound was dissolved in ethanol at the concentration of 200 mg/mL of active form and then 2 mg/mL suspension was obtained by adding this solution to 99 times volumes of 0.5% sodium carboxymethylcellulose solution. A part of this suspension was diluted with 0.5% sodium carboxymethylcellulose solution and then 0.6 and 0.2 mg/mL suspensions were prepared. After the body weights of rats were measured, the test suspension was orally administered at the dose of 5 mL/kg (1, 3 and 10 mg/kg). For control, just only 0.5% sodium carboxymethylcellulose solution was orally administered at the dose of 5 mL/kg. Immediately after this oral administration, 400 g/L glucose solution was orally administered at the dose of 5 mL/kg (2 g/kg). The oral administration was performed with gastric tube for rat and 2.5 mL syringe. The head count in one group was 3. Collection of urine was performed in metabolic cage after the glucose administration was finished. The sampling time for collection of urine was 24 hours after the glucose administration. After collection of urine was finished, the urine volume was recorded and the urinary glucose concentration was measured. The glucose concentration was measured with a kit for laboratory test: Glucose B-Test WAKO (Wako Pure Chemical Industries, Ltd.). The amount of urinary glucose excretion in 24 hours per 200 g of body weight was calculated from urine volume, urinary glucose concentration and body weight.
as §1, with “bodyweights” for “body weights”

ICR mice = assay: Acute toxicity test; type: in vivo; details: male ICR mice, oral 2000 mg/kg, observation until 24 hours, 5 animals in each group
Description: After 4 week old male ICR mice (Japan SLC. Inc., 20-25 g, 5 animals in each group) were fasted for 4 hours, the suspension (200 mg/mL) prepared by adding of 0.5% sodium carboxymethylcellulose solution to the test compound was orally administered at the dose of 10 mL/kg (2000 mg/kg). Observation was performed until 24 hours after the administration.

normal mice = details: cited from earlier work
human SGLT2 = molecular target: T1, human SGLT2 (Homo sapiens, UniProt P31639, I433V); assay: Assay for inhibitory effect on human SGLT2 activity (methyl-α-D-glucopyranoside uptake in COS-7 cells transiently expressing human SGLT2); type: cell-based
T1 construct: expressed in transfected cells; host or cells: COS-7 cells (RIKEN CELL BANK RCB0539), transient, electroporation
T1 sequence (P31639 1-672 I433V): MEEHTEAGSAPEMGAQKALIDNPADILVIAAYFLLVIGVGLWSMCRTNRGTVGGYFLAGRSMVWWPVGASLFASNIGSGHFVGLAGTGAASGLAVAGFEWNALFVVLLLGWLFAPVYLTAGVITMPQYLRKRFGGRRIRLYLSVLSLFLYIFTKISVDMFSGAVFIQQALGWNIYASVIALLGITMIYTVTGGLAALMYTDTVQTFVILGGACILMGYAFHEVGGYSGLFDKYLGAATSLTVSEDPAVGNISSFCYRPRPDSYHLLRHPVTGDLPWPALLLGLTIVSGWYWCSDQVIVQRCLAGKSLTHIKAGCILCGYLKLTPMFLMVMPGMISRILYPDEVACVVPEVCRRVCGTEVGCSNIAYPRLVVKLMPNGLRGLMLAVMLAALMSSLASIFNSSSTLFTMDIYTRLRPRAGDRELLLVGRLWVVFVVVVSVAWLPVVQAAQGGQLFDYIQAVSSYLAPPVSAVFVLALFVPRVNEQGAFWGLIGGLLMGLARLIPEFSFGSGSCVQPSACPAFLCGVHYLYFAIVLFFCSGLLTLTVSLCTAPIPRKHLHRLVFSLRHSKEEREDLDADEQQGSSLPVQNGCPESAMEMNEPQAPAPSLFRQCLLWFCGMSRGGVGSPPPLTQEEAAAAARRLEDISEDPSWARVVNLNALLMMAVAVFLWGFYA
Description: Assay for Inhibitory Effect on Human SGLT2 Activity
1) Construction of the Plasmid Vector Expressing Human SGLT2
Preparation of the cDNA library for PCR amplification was performed by reverse transcription of a total RNA deprived from human kidney (Ori gene) with oligo dT as the primer, using SUPERSCRIPT Preamplification System (Gibco-BRL: LIFE TECHNOLOGIES). The DNA fragment coding for human SGLT2 was amplified by the PCR reaction, in which the human kidney cDNA library described above was used as the template and the following oligo nucleotides 0702F and 0712R, presented as sequence number 1 and 2 respectively, were used as the primers. The amplified DNA fragment was ligated into pCR-Blunt (Invitrogen), a vector for cloning, according to standard method of the kit. The Escherichia coli HB101 was transformed according to usual method and then selection of the transformants was performed on the LB agar medium containing 50 μg/mL of kanamycin. After plasmid DNA was extracted and purified from the one of the transformants, amplifying of the DNA fragment coding for human SGLT2 was performed by the PCR reaction, in which the following oligo nucleotides 0714F and 0715R, presented as sequence number 3 and 4 respectively, were used as the primers. The amplified DNA fragment was digested with restriction enzymes, Xho I and Hind III, and then purified with Wizard Purification System (Promega). This purified DNA fragment was inserted at into the corresponding restriction sites of pcDNA3.1 (−) Myc/His—B (Invitrogen), a vector for expressing of fusion protein. The Escherichia coli HB101 was transformed according to usual method and then selection of the transformant was performed on the LB agar medium containing 100 μg/mL of ampicillin. After plasmid DNA was extracted and purified from this transformant, the base sequence of the DNA fragment inserted at the multi-cloning sites of the vector pcDNA3.1 (−) Myc/His—B was analyzed. […] Sequentially, a clone in which valine is substituted for isoleucine-433 was obtained. This plasmid vector expressing human SGLT2 in which the peptide presented as sequence number 5 is fused to the carboxyl terminal alanine residue was designated KL29.
2) Preparation of the Cells Expressing Transiently Human SGLT2
KL29, the plasmid coding human SGLT2, was transfected into COS-7 cells (RIKEN CELL BANK RCB0539) by electroporation. Electroporation was performed with GENE PULSER II (Bio-Rad Laboratories) under the condition: 0.290 kV, 975 μF, 2×10^6 cells of COS-7 cell and 20 μg of KL29 in 500 μL of OPTI-MEM I medium (Gibco-BRL: LIFE TECHNOLOGIES) in the 0.4 cm type cuvette. After the gene transfer, the cells were harvested by centrifugation and resuspended with OPTI-MEM I medium (1 mL/cuvette). To each well in 96-wells plate, 125 μL of this cell suspension was added. After overnight culture at 37° C. under 5% CO2, 125 μL of DMEM medium which is containing 10% of fetal bovine serum (Sanko Jyunyaku), […] sodium penicillin G (Gibco-BRL: LIFE TECHNOLOGIES), 100 μg/mL streptomycin sulfate (Gibco-BRL: LIFE TECHNOLOGIES) was added to each well. These cells were cultured until the next day and then they were used for the measurement of the inhibitory activity against the uptake of methyl-α-D-glucopyranoside.
3) Measurement of the Inhibitory Activity Against the Uptake of methyl-α-D-glucopyranoside
After a test compounds was dissolved in dimethyl sulfoxide and diluted with the uptake buffer (a pH 7.4 buffer containing 140 mM sodium chloride, 2 mM potassium chloride, 1 mM calcium chloride, 1 mM magnesium chloride, 5 mM methyl-α-D-glucopyranoside, 10 mM 2-[4-(2-hydroxyethyl)-1-piperazinyl]ethane sulfonic acid and 5 mM tris(hydroxymethyl)aminomethane), each diluent was used as test sample for measurement of the inhibitory activity. […]

| SMILES | Amount of Urinary Glucose Excretion (SD rats; oral dose 1 mg/kg) | Amount of Urinary Glucose Excretion (SD rats; oral dose 3 mg/kg) | Amount of Urinary Glucose Excretion (SD rats; oral dose 10 mg/kg) | Death number (ICR mice) | amount of excreted glucose (normal mice) | inhibitory activity in human SGLT2 (in words) (human SGLT2) | IC50 (human SGLT2; inhibition of methyl-α-D-glucopyranoside uptake, COS-7 cells expressing human SGLT2, 37° C., 2 hours) |
| --- | --- | --- | --- | --- | --- | --- | --- |
| CCOC(=O)OC[C@H]1O[C@@H](Oc2nn(C(C)C)c(C)c2Cc2ccc(OC(C)C)cc2)[C@H](O)[C@@H](O)[C@@H]1O [Example 1, 3-(6-O-Ethoxycarbonyl-β-D-glucopyranosyloxy)-4-[(4-isopropoxyphenyl)methyl]-1-isopropyl-5-methylpyrazole] | 1.6 mg/24 hours · 200 g body weight | 28.3 mg/24 hours · 200 g body weight | 127.5 mg/24 hours · 200 g body weight | – | – | – | – |
| COC(=O)OC[C@H]1O[C@@H](Oc2nn(C(C)C)c(C)c2Cc2ccc(OC(C)C)cc2)[C@H](O)[C@@H](O)[C@@H]1O [Example 15, 4-[(4-Isopropoxyphenyl)methyl]-1-isopropyl-3-(6-O-methoxycarbonyl-β-D-glucopyranosyloxy)-5-methylpyrazole] | 1.7 mg/24 hours · 200 g body weight | 36.8 mg/24 hours · 200 g body weight | 167.3 mg/24 hours · 200 g body weight | – | – | – | – |
| COC(=O)OC[C@H]1O[C@@H](Oc2n[nH]c(C)c2Cc2ccc(OC(C)C)cc2)[C@H](O)[C@@H](O)[C@@H]1O [Example 48, 4-[(4-Isopropoxyphenyl)methyl]-3-(6-O-methoxycarbonyl-β-D-glucopyranosyloxy)-5-methyl-1H-pyrazole] | – | – | – | 0/5 | – | – | – |
| CSc1ccc(Cc2c(C(F)(F)F)[nH][nH]c2=O)cc1 [WAY-123783, reference compound] | – | – | – | – | increased | extremely weak inhibitory activity | > 100 µM |
